In brackets after ≈: the same amount, converted by molar mass. Like-named read-outs stand apart in the source and are kept apart here.

Holding throughout (assay): Minimal growth inhibitory concentration (MIC), serial dilution in broth, agent alone
Common to all, as to assay type: cell-based

The test system of assay [1] is Actinomyces viscosus T14V. Conditions: Experiment 6, A. viscosus, chlorhexidine as free base concentration. The method, then: (§1) MINIMAL GROWTH INHIBITORY CONCENTRATION
(§2) The minimal inhibitory concentration (MIC) of the test compound is the minimum concentration of compound required to inhibit growth of the test organism. The MIC is determined by serially diluting the test solution through tubes of sterile broth. The tubes are inoculated and incubated at 37°C for 48 hours. At the end of the incubation time, growth is checked macroscopically. The lowest concentration of test compound to inhibit growth is the MIC.

Assay [2] has as its system Candida albicans ATCC 18804. Conditions: Experiment 7, C. Albicans, chlorhexidine as free base concentration. The method, then: as §1, §2
In assay [3] the test system is Streptococcus mutans ATCC 25175. Conditions: for MIC in w/w%: chlorhexidine as free base concentration; for MIC: Streptococcus mutans, ATCC25175, 48 h, read-out: MIC (micro g/ml). The method, then: as §1, §2
Assay [4] deals with Streptococcus sanguis ATCC 19558. Conditions: Experiment 5, S. sanguis, chlorhexidine as free base concentration. The method, then:
as §1, §2

[5] abbreviates: Experiments A-D, agent alone, 37°C, 48 hours.

Consider `[H]/N=C(\N/C(=N/[H])NCCCCCCNC(=N)NC(=N)Nc1ccc(Cl)cc1)Nc1ccc(Cl)cc1` [Chlorhexidine, 1,6-di(p-chlorophenylbiguanido)hexane], for which the “MIC (w/w%)” value is given as 4.4x10^-5 w/w% in assay [1], 3.5x10^-4 w/w% in assay [2] and 3.4x10^-4 w/w% in assay [4]. Further, the MIC in w/w% in assay [3] (Experiment 1, agent alone, 37°C, 48 hours) is on record as 2.2x10^-5 w/w%; in assay [3] (Experiment 2, agent alone, 37°C, 48 hours) it was 2.2x10^-5 w/w%; in assay [3] (Experiment 3, agent alone, 37°C, 48 hours) it was 2.8x10^-5 w/w%; in assay [3] (Experiment 4, agent alone, 37°C, 48 hours), 2.25x10^-5 w/w%. In addition, the MIC in assay [3] (setting [5]) was 0.25 µg/mL (≈ 0.495 µM).

As to `CC12CCC(CC1)C(C)(C)O2` [Eucalyptol], the MIC in assay [3] (setting [5]) turned out to be 58 µg/mL (≈ 376 µM).

In the case of `CC1CCC(C(C)C)C(O)C1` (stereo not drawn) [Menthol], the MIC in assay [3] was 30 µg/mL (≈ 192 µM).

Consider `COC(=O)c1ccccc1O` [Methyl Salicylate], for which the MIC in assay [3] turned out to be 35 µg/mL (≈ 230 µM).

Consider `Cc1ccc(C(C)C)c(O)c1` [Thymol], for which the MIC in assay [3] (setting [5]) was determined as 80 µg/mL (≈ 533 µM).

The values above are taken from patent EP0244363A1, “Composition and method to inhibit the growth of organisms by the use of bis-biguanido hexanes and essential oil mixture combinations” (WARNER-LAMBERT COMPANY, priority 1986, dated 1987).
